The source of these data is ChEMBL document CHEMBL1153003, “Synthesis and affinity to DNA of phenylbenzoimidazoles and benzoimidazo[1,2-c]quinazolines” (Eur J Med Chem, 2009).

This assay has as its system Calf thymus DNA. Nature of the assay: Displacement of ethidium bromide from calf thymus DNA. The format is nucleic-acid assay. To be noted: Bos taurus.
For the molecule `CN1CCN(CCc2nc3ccccc3c3nc4ccccc4n23)CC1`, the logC50 was -4.18 and the logKA was 6.28.
In the same order, the values of `CC1CCN(Cc2nc3ccccc3c3nc4ccccc4n23)CC1` are -3.83 and 5.93.
The like results for `c1ccc2c(c1)nc(CCN1CCOCC1)n1c3ccccc3nc21` were, in that order, -4.12 and 6.22.
In the same order, the values of `CN1CCN(Cc2nc3ccccc3c3nc4ccccc4n23)CC1` are -3.72 and 5.82.
`CC1CCN(CCc2nc3ccccc3c3nc4ccccc4n23)CC1` registered a logC50 of -4.23 and a logKA of 6.33.
`CC1CCN(CCC(=O)Nc2ccccc2-c2nc3ccccc3[nH]2)CC1`: the logC50 was -2.83 and the logKA came out at 4.93.
`CC1CCN(CC(=O)Nc2ccccc2-c2nc3ccccc3[nH]2)CC1` returned a logC50 of -2.84 and a logKA of 4.94.
Regarding `CC1CCCCN1CCC(=O)Nc1ccccc1-c1nc2ccccc2[nH]1` (configuration not stated), the logC50 is -2.66 and the logKA was found to be 4.76.
In the same order, the values of `c1ccc2c(c1)nc(CN1CCOCC1)n1c3ccccc3nc21` are -3.44 and 5.54.
The like results for `O=C(CN1CCCCC1)Nc1ccccc1-c1nc2ccccc2[nH]1` were, in that order, -2.65 and 4.75.
As to `CC1CCCCN1CC(=O)Nc1ccccc1-c1nc2ccccc2[nH]1` (configuration not stated), the logC50 is -2.66 and the logKA was 4.76.
In the same order, the values of `O=C(CCN1CCOCC1)Nc1ccccc1-c1nc2ccccc2[nH]1` are -2.92 and 5.02.
The molecule `c1ccc2c(c1)nc(CCN1CCCCC1)n1c3ccccc3nc21` yielded a logC50 of -4.03 and a logKA of 6.13.
As for `CC1CCCCN1CCc1nc2ccccc2c2nc3ccccc3n12` (configuration not stated), the logC50 is -4.17 and the logKA was 6.27.
The molecule `O=C(CCN1CCCCC1)Nc1ccccc1-c1nc2ccccc2[nH]1` displayed a logC50 of -2.8 and a logKA of 4.9.
In the same order, the values of `CN1CCN(CCC(=O)Nc2ccccc2-c2nc3ccccc3[nH]2)CC1` are -2.86 and 4.96.
The like results for `CCN(CC)CCOc1ccc2c(c1)C(=O)c1cc(OCCN(CC)CC)ccc1-2` were, in that order, -4.2 and 6.3.
In the same order, the values of `c1ccc2c(c1)nc(CN1CCCCC1)n1c3ccccc3nc21` are -3.84 and 5.94.
`O=C(CN1CCOCC1)Nc1ccccc1-c1nc2ccccc2[nH]1` gave a logC50 of -2.58 and a logKA of 4.68.
In the case of `CC1CCCCN1Cc1nc2ccccc2c2nc3ccccc3n12` (configuration not stated), the logC50 was -3.65 and the logKA came out at 5.75.
For `CN1CCN(CC(=O)Nc2ccccc2-c2nc3ccccc3[nH]2)CC1`, the logC50 was -2.32 and the logKA was determined as 4.42.
